Measured values published in patent US20160123988A1, “METHOD OF TRACELESS LABELING GLYCOPROTEINS ON SURFACE AND APPLICATION THEREOF” (NATIONAL SUN YAT-SEN UNIVERSITY, priority 2014, published 2016).

What was measured:
[1] = biological target: T1, fetuins (Bos taurus, UniProt P12763); test: Labeling of fetuins by probes, biotinylation, SDS-PAGE and Western blotting with anti-biotin antibody; type: biochemical, calf; conditions: probe 40 μM, fetuins 20 μM, 37° C., 48 h; FIG. 3
T1 construct: Fetuin (from fetal calf serum) and RNase B (from bovine pancreas) were purchased from Sigma-Aldrich; purchased Sigma-Aldrich; host or cells: fetal calf serum (natural source)
T1 sequence (P12763 19-359): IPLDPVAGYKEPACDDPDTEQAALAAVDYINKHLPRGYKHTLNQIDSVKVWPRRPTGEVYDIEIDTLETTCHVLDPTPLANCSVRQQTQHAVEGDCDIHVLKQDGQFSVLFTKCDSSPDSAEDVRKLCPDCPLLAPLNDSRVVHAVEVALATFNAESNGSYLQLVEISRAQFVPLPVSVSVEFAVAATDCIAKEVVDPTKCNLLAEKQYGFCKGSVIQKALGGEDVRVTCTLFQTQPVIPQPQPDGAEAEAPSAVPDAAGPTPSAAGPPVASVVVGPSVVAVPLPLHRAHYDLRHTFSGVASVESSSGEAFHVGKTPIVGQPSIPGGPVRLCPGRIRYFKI
Description: A solution of fetuins (10 μM) was incubated with BA-tosyl probes 1-3 (50 μM) in PBS buffer (0.1 M, pH 8.0) at 37° C. for 48 h. Then, the unreacted BA-tosyl probes were removed by centrifugal filtration (Amicon Ultra-0.5 mL 10K) at 15,000 rpm, followed by washing five times with PBS buffer (300 μL). The resultant alkyne-tagged fetuins (11.53 μL, 26.28 μg/μL) were collected and treated with azido biotin (20 μL, 1 mM) in PBS buffer (44.47 μL, pH 8.0, 0.1 M). Then, the mixture was treated with tris(carboxyethyl)phosphine (TCEP, 0.1 M, 2 μL) and tris[(1-benzyl-1H-1,2,3-triazol-4-yl)methyl]amine (TBTA, 0.01 M, 20 μL) with gentle shaking. After homogeneous mixing, CuSO4 (0.1 M, 2 μL) was added, and the reaction mixture was shaken at RT for 12 h. The excess reactants were removed by centrifugal filtration at 15,000 rpm, and the biotinylated fetuins were obtained.
To evaluate the specificity of synthetic BA-tosyl probes, BA-tosyl 1-3, aniline-tosyl 7, and BA-alkyne 8 (40 μM) were incubated with fetuins (20 μM), blood glycoproteins carrying triantennary glycan chains with terminal N-acetylneuraminic acids, at 37° C. for 48 h. The unreacted chemical probes were then removed by centrifugal filtration or size-exclusion column chromatography to obtain the alkyne-labeled fetuins. Azido biotin was then used to form biotinylated fetuins via Cu(I)-catalyzed 1,2,3-triazole cycloaddition. […]

[2] = biological target: T2, RNase B (Bos taurus, UniProt P61823); test: Immobilization of RNase B on functionalized slides, read out with Con A-FITC fluorescence; type: biochemical, bovine; conditions: for Con A-FITC signal of RNase B on probe-functionalized slides: slides incubated with RNase B then treated with glycerol, compared to BA-tosyl-treated slides, FIG. 6(b), 6(c); for Con A-FITC intensity after release of BA-tosylate by polyol: RNase B on BA-tosyl slides, glycerol 10%, sorbitol 100 mM, compared to galactose 100 mM, FIG. 6(a)
T2 construct: Fetuin (from fetal calf serum) and RNase B (from bovine pancreas) were purchased from Sigma-Aldrich; purchased Sigma-Aldrich; host or cells: bovine pancreas (natural source)
T2 sequence (P61823 27-150): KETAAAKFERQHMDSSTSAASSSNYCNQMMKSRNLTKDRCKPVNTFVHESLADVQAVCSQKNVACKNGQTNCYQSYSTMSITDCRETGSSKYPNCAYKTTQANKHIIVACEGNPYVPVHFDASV
Description: The aforementioned azide-functionalized slide was rinsed twice with sodium phosphate buffer (25 mM, pH 8.0) and immersed in the same buffer (45 mL). To effect the Cu(I)-catalyzed 1,2,3-triazole cycloaddition, BA-tosyl 1 (or compound 7 or 8) was added to the reaction mixture to afford a final concentration of 5 mM and treated with TCEP (2 mM) and TBTA (2 mM). Then, an aqueous solution of CuSO 4 (100 mM) was added to the reaction mixture to give a final concentration of 4 mM, and the mixture was allowed to react at RT. After 12 h, the slide was washed three times with PBS and twice with distilled deionized water (ddH2O) to obtain BA-tosyl 1 (or compound 7 or 8)-functionalized slides.
Fluorescein-labeled lectins (Con A-FITC and WGA-FITC, 10 μM in PBS containing 5 mM CaCl2 and 5 mM MnCl2) were incubated with the glycoprotein microarray at RT for 1 h. Then, the slide was washed three times with PBS containing 10% glycerol and twice with ddH2O. Finally, the slide was dried under warm air and subjected to fluorescence analysis.
To quantitatively evaluate the protein-glycoprotein interactions, the lectin-glycoprotein complexes were analyzed by measuring the fluorescence intensities of the fluorescein tags. The fluorescence signals were directly detected by a NovaRay Microarray Scanner with an FITC filter, and were subsequently analyzed using ArrayVision software.
Glycoproteins in ddH2O containing 20% dimethyl sulfoxide (DMSO) were spotted onto the surface of the functionalized slide. To immobilize glycoproteins on the slides, an AD1500 arrayer (Biodot) was used to print samples of interest onto the functionalized slide with a spot volume of 20 nL under 85% relative humidity at 25° C. The protein sample was allowed to incubate at 25° C. for 12 h, and the glycoprotein solution was then removed by decanting the reaction mixture. The slide was incubated with ddH2O containing 10% glycerol for 30 min, followed by washing twice with the same solution (ddH2O with 10% glycerol). The slide was further treated with 10 mM imidazole solution (Tris buffer, 10 mM NaCl, pH 7.4) for 30 min to block unreacted BA-tosyl groups. The obtained glycoprotein micro-array was then washed three times by PBS (pH 7.4) and was ready for advanced use.
To evaluate the details of the immobilization mechanism, ribonuclease B (RNase B), carrying a single N-glycan chain composed of high mannose isomers, was spotted onto BA-tosyl-functionalized slides and allowed to incubate at 25° C. for 12 h. The slides were then individually treated with three different polyols in phosphate buffered saline (PBS) to competitively release the BA-tosylate. Glycerol (10%), galactose (100 mM), and sorbitol (100 mM) were used. […]

Western blot band of biotin-labeled fetuins (labeling of fetuin) [1]	Con A-FITC signal of RNase B on probe-functionalized slides [2]	Con A-FITC signal of RNase B on probe-functionalized slides ([2]; listed as 7)	Con A-FITC intensity after release of BA-tosylate by polyol [2]	Compound
much weaker signal	very low signal intensity	nearly background-level signals	–	C#CCCCOS(=O)(=O)c1cc(C=O)cc(C(=O)Nc2ccccc2)c1 [aniline-tosyl 7]
–	–	–	twice the intensity	OCC(O)CO [glycerol]
–	–	–	twice the intensity	OC[C@@H](O)[C@@H](O)[C@H](O)[C@@H](O)CO [sorbitol]
